SMILES strings stand for the structures.

36 molecules from ChEMBL document CHEMBL1133626, “GRid-INdependent descriptors (GRIND): a novel class of alignment-independent three-dimensional molecular descriptors” (J Med Chem, 2000) can be followed below.

Assay [1] deals with T1, Corticosteroid-binding globulin (Homo sapiens) (UniProt P08185).
T1 sequence (whole entry): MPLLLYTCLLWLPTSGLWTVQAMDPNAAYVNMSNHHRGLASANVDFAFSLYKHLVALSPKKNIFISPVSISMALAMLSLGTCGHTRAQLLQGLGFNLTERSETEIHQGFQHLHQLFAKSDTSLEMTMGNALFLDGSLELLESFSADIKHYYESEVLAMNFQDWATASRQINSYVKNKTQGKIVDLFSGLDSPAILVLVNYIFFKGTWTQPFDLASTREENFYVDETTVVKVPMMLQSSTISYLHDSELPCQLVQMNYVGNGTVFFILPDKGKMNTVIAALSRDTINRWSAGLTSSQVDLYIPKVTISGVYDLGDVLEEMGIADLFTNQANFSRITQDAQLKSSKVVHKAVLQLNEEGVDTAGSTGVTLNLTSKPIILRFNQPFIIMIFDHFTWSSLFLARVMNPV
In words: (§1) Binding affinity to the corticosteroid-binding globulin (CBG) receptor.

Assay [2] has as its target 5-hydroxytryptamine receptor 2A (Rattus norvegicus, UniProt P14842). In words: Kinetic inhibition constant evaluated by measuring serotonergic activity.
Assay [3] can be described thus: Kinetic inhibition constant was evaluated by measuring the inhibition of the glycogen phosphorylase (GP).
Assay [4] in a line: Binding affinity of the Corticosteroid-Binding Globulin Receptor with androstanediol.
Assay [5] in a line: as §1.
Assay [6] can be described thus: Binding affinity of the Corticosteroid-Binding Globulin Receptor with androsterone.
The nature of assay [7]: Binding affinity of the Corticosteroid-Binding Globulin Receptor with deoxy-corticosterone.
Assay [8] deals with T1, Corticosteroid-binding globulin (Homo sapiens).
Assay [9] is described as follows: Binding affinity of the Corticosteroid-Binding Globulin Receptor with corticosterone.
Assay [10] is described as follows: Binding affinity of the Corticosteroid-Binding Globulin Receptor with androstenediol.
Assay [11] in a line: Binding affinity of the Corticosteroid-Binding Globulin Receptor with cortisol.
A short description of assay [12]: Binding affinity of the Corticosteroid-Binding Globulin Receptor with androstenedione.
Assay [13] is described as follows: Binding affinity of the Corticosteroid-Binding Globulin Receptor with dehydroepiandrosterone.

5-hydroxytryptamine receptor 2A, sequence (P14842 whole entry): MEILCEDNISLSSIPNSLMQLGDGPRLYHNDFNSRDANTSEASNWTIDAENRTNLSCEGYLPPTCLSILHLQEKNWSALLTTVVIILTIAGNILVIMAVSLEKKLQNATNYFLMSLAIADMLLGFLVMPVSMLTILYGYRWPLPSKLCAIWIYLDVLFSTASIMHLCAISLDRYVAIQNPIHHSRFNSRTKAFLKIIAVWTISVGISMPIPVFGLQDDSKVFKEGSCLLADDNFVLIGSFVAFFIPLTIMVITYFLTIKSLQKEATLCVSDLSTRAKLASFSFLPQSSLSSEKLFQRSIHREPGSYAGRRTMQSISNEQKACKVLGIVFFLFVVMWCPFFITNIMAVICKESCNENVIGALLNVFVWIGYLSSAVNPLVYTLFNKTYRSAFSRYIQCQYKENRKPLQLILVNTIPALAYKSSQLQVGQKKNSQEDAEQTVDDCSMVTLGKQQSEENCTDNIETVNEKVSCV

`CC(=O)[C@H]1CC[C@H]2[C@@H]3CC=C4C[C@@H](O)CC[C@]4(C)[C@H]3CC[C@]12C` registered a Log K in assay [1] of 5.25.
`C[C@]12CCC(=O)C=C1CC[C@@H]1[C@@H]2[C@@H](O)C[C@@]2(C)[C@H]1CC[C@]2(O)C(=O)CO` showed a Log K in assay [1] of 7.88.
For the molecule `CC(=O)[C@@]1(O)CC[C@H]2[C@@H]3CCC4=CC(=O)CC[C@]4(C)[C@H]3CC[C@@]21C`, in [1], the Log K was determined as 7.74.
In assay [1], `C[C@]12CC[C@H](O)C[C@@H]1CC[C@@H]1[C@@H]2CC[C@]2(C)[C@@H](O)CC[C@@H]12` came in with a Log K of 5.
As for `O=C1C(CCN2CCC(c3noc4cc(F)ccc34)CC2)CC2=CC=CC12` (centres undefined), the Ki in [2] is 1.74 nM.
`CC(=O)[C@H]1CC[C@H]2[C@@H]3CCC4=CC(=O)CC[C@]4(C)[C@H]3C(=O)C[C@]12C` displayed a Log K in assay [1] of 6.78.
With `NC(=O)C1OC(CO)C(O)C(O)C1O` (stereo in doubt; 2), the pKi in [3] worked out at 3.43. This molecule also returned a Log K in assay [4] of 5.
With `C[C@]12C=CC(=O)C=C1CC[C@@H]1[C@@H]2[C@@H](O)C[C@@]2(C)[C@H]1CC[C@]2(O)C(=O)CO`, the Log K in [5] is 6.72.
The molecule `C[C@]12CCC(=O)C=C1CC[C@@H]1[C@@H]2[C@@H](O)C[C@]2(C=O)[C@@H](C(=O)CO)CC[C@@H]12` had a Log K in assay [5] of 6.28.
`N#CC[C@@H]1O[C@H](CO)[C@@H](O)[C@H](O)[C@H]1O` showed a pKi in [3] of 2.05. Moreover, the Log K in assay [6] stood at 5.61.
`O=C1CNC(=O)[C@@]2(N1)O[C@@H](CO)[C@@H](O)[C@H](O)[C@@H]2O` returned a Log K in assay [7] of 7.65. The same molecule displayed a pKi in [3] of 4.22.
`C[C@]12CCC(=O)C=C1CC[C@@H]1[C@@H]2CC[C@@]2(C)[C@H]1CC[C@]2(O)C(=O)CO`: the Log K in assay [5] is 7.88.
In turn, `CC(=O)C1[C@H](C)CC2C3CC=C4CC(=O)CCC4(C)C3CCC21C` (some centres undefined) returned a Log K in assay [1] of 6.25.
Regarding `CC(=O)[C@H]1CC[C@H]2[C@@H]3CCC4=CC(=O)CC[C@]4(C)[C@H]3CC[C@]12C`, in assay [8], the Log Ki worked out at 7.38 mM.
Turning to `CC(=O)[C@@]1(O)CC[C@H]2[C@@H]3CC[C@@H]4C[C@H](O)CC[C@]4(C)[C@H]3CC[C@@]21C`, the Log K in [1] is 5.
In assay [1], `C[C@@H]1C[C@@]2(C)C(=CC1=O)CC[C@H]1[C@@H]3CC[C@](O)(C(=O)CO)[C@@]3(C)C[C@H](O)[C@@]12F` registered a Log K of 5.8.
`CC(=O)[C@@]1(O)[C@H](O)C[C@H]2[C@@H]3CC=C4CC(=O)CC[C@]4(C)[C@H]3CC[C@@]21C` gave a Log K in [1] of 6.14.
In turn, `O=C(c1ccc(F)cc1)C1CCN(CCC2CC3=CC=CC3C2=O)CC1` (centres undefined) gave a Ki in [2] of 7.08 nM.
In assay [5], `C[C@]12C[C@@H](O)[C@H]3[C@@H](CCC4=CC(=O)CC[C@@]43C)[C@@H]1CC[C@@H]2C(=O)CO` returned a Log K of 6.78.
`C[C@]12CC[C@@H]3c4ccc(O)cc4CC[C@H]3[C@@H]1C[C@@H](O)[C@@H]2O` gave a Log K in [1] of 5.
Consider `NC(=O)N[C@H]1O[C@H](CO)[C@@H](O)[C@H](O)[C@H]1O`, for which the Log K in [9] is 7.88. Further, the pKi in [3] was 3.85.
Regarding `CC(=O)[C@H]1CC[C@H]2[C@@H]3CCC4=CC(=O)CC[C@@H]4[C@H]3CC[C@]12C`, in assay [1], the Log K worked out at 7.12.
For `C[C@]12CC[C@H]3[C@@H](CCC4=CC(=O)CC[C@@]43C)[C@@H]1CC[C@@H]2C(=O)CO`, the Log K in assay [1] is 7.65.
Regarding `NC(=O)C1OC(CO)C(O)C(O)C1O` (stereo in doubt; 3), the Log K in [10] worked out at 5. Moreover, the pKi in assay [3] is 3.36.
As for `C[C@]12CC[C@H](O)CC1=CC[C@@H]1[C@@H]2CC[C@]2(C)C(=O)CC[C@@H]12`, the Log K in [1] stood at 5.
`C[C@]12CC[C@H]3[C@@H](CCC4=CC(=O)CC[C@@]43C)[C@@H]1CC[C@@H]2O` returned a Log K in assay [1] of 6.72.
In the case of `COC(=O)N[C@]1(C(N)=O)O[C@H](CO)[C@@H](O)[C@H](O)[C@H]1O`, the Log K in assay [11] amounted to 7.88. In [3], this molecule returned a pKi of 4.8.
Take `C[C@]12C[C@H](O)[C@H]3[C@@H](CCC4=CC(=O)CC[C@@]43C)[C@@H]1CC[C@@H]2C(=O)CO`: the Log K in assay [1] turned out to be 7.88.
In assay [1], `CC(=O)OCC(=O)[C@@]1(O)CC[C@H]2[C@@H]3CCC4=CC(=O)CC[C@]4(C)[C@H]3[C@@H](O)C[C@@]21C` gave a Log K of 7.55.
For the molecule `C[C@]12CC[C@@H]3c4ccc(O)cc4CC[C@H]3[C@@H]1CC[C@@H]2O`, in assay [1], the Log K was 5.
`C[C@]12CC[C@H]3[C@@H](CCC4=CC(=O)CC[C@@H]43)[C@@H]1CC[C@@H]2O` came in with a Log K in assay [1] of 7.2.
With `COC(=O)C1OC(CO)C(O)C(O)C1O` (centres undefined), in assay [12], the Log K is 5.76. The pKi in assay [3] is 2.55.
In [13], `NN1C(=O)N[C@@]2(O[C@@H](CO)[C@@H](O)[C@H](O)[C@@H]2O)C1=O` returned a Log K of 5. In [3], this molecule came in with a pKi of 3.84.
In the case of `C[C@]12CCC(=O)C=C1CC[C@@H]1[C@@H]2CC[C@]2(C)C(=O)CC[C@@H]12`, the Log K in assay [1] came out at 5.76.
For `O=C(CCCN1CCN(CCC2CC3=CC=CC3C2=O)CC1)c1ccc(F)cc1` (centres undefined), the affinity in [2], expressed as Ki, was 42.7 nM.
Molecule `C[C@]12CCC(=O)C=C1CC[C@@H]1[C@@H]2C(=O)C[C@@]2(C)[C@H]1CC[C@]2(O)C(=O)CO` registered a Log K in [1] of 6.89.
